Measurements as given in paper PMC10001106, “A New Bloody Pulp Selection of Myrobalan (Prunus cerasifera L.): Pomological Traits, Chemical Composition, and Nutraceutical Properties” (Foods, 2023).

How the values were obtained:
Conditions in all cases: mean ± SD, n = 3
[1] = DPPH radical scavenging test
Description: (§1) All the procedures were previously detailed. The Relative Antioxidant Capacity Index (RACI) was applied to evaluate the sample characterized by the highest activity. Linear regression, assessment of repeatability, calculation of average, relative standard deviation (SD), and Pearson’s correlation coefficient (r) were calculated by using Microsoft Excel 2010 software (Redmond, WA, USA). The results were expressed as the means of three different experiments ± SD.

[2] = ABTS radical scavenging test
Description: as §1

[3] = β-carotene bleaching test
Description: as §1

Row | Compound | DPPH Test (IC50) [1] [mg/L] | ABTS Test (IC50) [2] [mg/L] | β-Carotene Bleaching Test (IC50) [3] [mg/L]
1 | O=C1O[C@H]([C@@H](O)CO)C(O)=C1O [Ascorbic acid] | 5.04 ± 0.81 | 1.72 ± 0.14 | –
2 | CCCOC(=O)c1cc(O)c(O)c(O)c1 [Propyl gallate] | – | – | 0.09 ± 0.04
